Laboratory results as given in patent US5633009A, “Transdermal administration of azapirones” (Sano Corporation, priority 1993, dated 1997).

Assays:
[1] = examination of patch for recrystallization after 24 months storage; assay type: physicochemical; settings: Example 2 matrix patch (polyvinylacetate, isocetyl alcohol)
Protocol: The matrix layer mixture is slot die coated onto the backing layer. To do this, the mixture is allowed to flow through a slot to form a thin coat of a desired thickness, containing approximately 20 mg/cm^2 of the mixture, which is deposited onto a layer of polyester film laminate backing layer (ScotchPak 1012, 3M Corporation, St. Paul, Minn.).
A layer of double-sided pressure-sensitive polyacrylate adhesive and a layer of silicone coated polyester release liner are laminated to the face of the matrix facing away from the backing layer to form a quadruple laminate of backing layer/buspirone loaded matrix layer/pressure-sensitiveadhesive layer/release liner (peel strip) layer. […] For use, one transdermal buspirone delivery device is removed from its packet, the release liner (peel strip) layer is removed and discarded, and the pressure-sensitive adhesive layer is applied firmly to the patient's arm.

[2] = system: nicotine dependence / nicotine withdrawal symptoms; assay: smoking cessation: nicotine dependence and withdrawal symptoms in individuals attempting to stop smoking; assay type: in vivo, human; settings: transdermal device of Example 1, 20 cm^2, changed once a day for 21 days; five individuals
Protocol: Transdermal delivery devices are prepared as described in Example 1.

depression = assay: treatment of out-patients with clinically assessed depression; assay type: in vivo, human; settings: transdermal device of Example 6, daily for four weeks; twenty out-patients in two groups
Protocol: Transdermal delivery devices are prepared as described in Example 6. Twenty out-patients comprised of both males and females and suffering from clinically assessed depression are divided into two groups.

premenstrual syndrome = assay: treatment of women suffering from premenstrual syndrome; assay type: in vivo, human; settings: transdermal device of Example 6, five days preceding the onset of menstruation; eight women
[3] = system: psychogenic symptomatologies; settings: oral; anxiety, depression, panic disorders, nicotine dependence and others; cited from earlier work
clinical = settings: human, in vivo
[4] = in vivo, po; cited from earlier work

SMILES | recrystallization in patch on storage [1] | nicotine dependence [2] | symptoms including drowsiness, restlessness, headache, irritability, inability to concentrate, and increased appetite [2] | improvement of depression versus placebo patches (depression) | premenstrual syndrome symptoms (premenstrual syndrome) | clinical response of psychogenic symptomatologies [3] | Tmax (clinical; po) | AUC (clinical; topical or ocular) | Cmax (clinical; topical or ocular) | Tmax (clinical; topical or ocular) | absorption from the gastrointestinal tract [4]
O=C1c2ccccc2S(=O)(=O)N1CCCCN1CCN(c2ncccn2)CC1 [ipsapirone] | no recrystallization |  |  |  |  |  |  |  |  |  | 
O=C1CC2(CCCC2)CC(=O)N1CCCCN1CCN(c2ncccn2)CC1 [buspirone] |  | decrease in nicotine dependence | decrease in symptoms | significant improvement | decrease in their symptoms | responsive to oral buspirone | 0.8 h | 12.7 ng·h/mL | 0.79 ng/mL | 16.5 h | poorly absorbed
